From patent US20060045953A1 (priority 2004, published 2006)
Read-outs that look alike come from different tables or passages of the source.

Biological target: T1, hT1R2/hT1R3 sweet receptor (Homo sapiens, UniProt Q7RTX0+Q8TE23)
T1 construct: expressed in transfected cells; host or cells: HEK293 derivative stably expressing Gα15, clone S-9
T1 sequence (Q8TE23 20-839): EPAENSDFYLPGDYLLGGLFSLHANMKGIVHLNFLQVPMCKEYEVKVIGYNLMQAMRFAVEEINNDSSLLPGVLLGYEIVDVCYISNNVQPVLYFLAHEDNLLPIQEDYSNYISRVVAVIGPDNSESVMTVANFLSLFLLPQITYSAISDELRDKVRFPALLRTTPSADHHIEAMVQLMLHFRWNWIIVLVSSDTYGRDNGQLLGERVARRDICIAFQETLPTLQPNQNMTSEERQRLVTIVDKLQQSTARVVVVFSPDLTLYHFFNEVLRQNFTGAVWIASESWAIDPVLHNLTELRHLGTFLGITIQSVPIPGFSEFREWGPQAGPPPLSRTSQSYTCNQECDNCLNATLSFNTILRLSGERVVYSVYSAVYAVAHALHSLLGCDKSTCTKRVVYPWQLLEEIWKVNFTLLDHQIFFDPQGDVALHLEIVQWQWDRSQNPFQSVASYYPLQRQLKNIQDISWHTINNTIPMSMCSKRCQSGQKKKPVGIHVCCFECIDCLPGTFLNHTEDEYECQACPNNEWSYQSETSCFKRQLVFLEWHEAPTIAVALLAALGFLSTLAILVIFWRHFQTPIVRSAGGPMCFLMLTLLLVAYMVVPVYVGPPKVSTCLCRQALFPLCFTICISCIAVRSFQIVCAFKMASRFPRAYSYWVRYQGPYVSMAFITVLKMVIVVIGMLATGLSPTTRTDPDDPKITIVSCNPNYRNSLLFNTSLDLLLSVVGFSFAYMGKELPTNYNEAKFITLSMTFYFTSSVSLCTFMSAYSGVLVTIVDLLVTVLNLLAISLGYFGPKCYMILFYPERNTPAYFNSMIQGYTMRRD
T1 sequence (Q7RTX0 21-852): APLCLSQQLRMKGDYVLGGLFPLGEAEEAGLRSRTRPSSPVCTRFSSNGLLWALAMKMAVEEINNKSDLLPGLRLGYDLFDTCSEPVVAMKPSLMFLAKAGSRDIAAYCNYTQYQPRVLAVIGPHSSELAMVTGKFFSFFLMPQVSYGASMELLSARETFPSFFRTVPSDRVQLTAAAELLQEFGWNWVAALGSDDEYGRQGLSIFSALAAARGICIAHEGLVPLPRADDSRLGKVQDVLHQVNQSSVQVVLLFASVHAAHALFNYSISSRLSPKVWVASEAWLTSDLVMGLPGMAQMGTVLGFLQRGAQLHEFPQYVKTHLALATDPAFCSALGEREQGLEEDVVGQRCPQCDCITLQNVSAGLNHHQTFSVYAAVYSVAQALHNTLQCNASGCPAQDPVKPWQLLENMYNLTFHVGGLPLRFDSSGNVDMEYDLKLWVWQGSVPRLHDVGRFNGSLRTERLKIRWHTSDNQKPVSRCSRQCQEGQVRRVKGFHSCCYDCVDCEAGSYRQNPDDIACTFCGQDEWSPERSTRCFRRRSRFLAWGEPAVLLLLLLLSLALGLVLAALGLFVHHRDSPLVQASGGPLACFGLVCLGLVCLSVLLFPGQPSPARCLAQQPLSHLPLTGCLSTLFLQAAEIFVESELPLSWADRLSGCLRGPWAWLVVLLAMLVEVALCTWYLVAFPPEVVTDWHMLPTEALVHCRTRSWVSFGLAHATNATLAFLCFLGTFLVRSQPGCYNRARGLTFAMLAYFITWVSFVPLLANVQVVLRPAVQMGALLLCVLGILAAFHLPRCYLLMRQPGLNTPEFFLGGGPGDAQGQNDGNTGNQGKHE
Experiment: In vitro hT1R2/hT1R3 sweet taste receptor activation assay (FLIPR, dose response)
Assay type: cell-based
Procedure: Activity was determined using an automated fluorometric imaging assay on a FLIPR instrument (Fluorometric Intensity Plate Reader, Molecular Devices, Sunnyvale, Calif.) (designated FLIPR assay). […] S-9 cells were grown for 24 hours at 37° C. S-9 cells were then loaded with the calcium dye Fluo-3AM (Molecular Probes, Eugene, Oreg.), 4 µM in a phosphate buffered saline (D-PBS) (Invitrogen, Carlsbad, Calif.), for 1 hour at room temperature. After replacement with 25 µl D-PBS, stimulation was performed in the FLIPR instrument and at room temperature by the addition of 25 µl D-PBS supplemented with different stimuli at concentrations corresponding to twice the desired final level.
For dose-responses analysis, stimuli were presented in duplicates at 10 different concentrations ranging from 60 nM to 30 µM. Activities were normalized to the response obtained with 400 mM D-fructose, a concentration that elicits maximum receptor response. EC50s were determined using a non-linear regression algorithm (using a Senomyx, Inc. software), where the Hill slope, bottom asymptotes and top asymptotes were allow to vary.

[1] = read-out: EC50 for activation of a hT1R2/hT1R3 sweet receptor expressed in an HEK293 cell line
[2] = Table E, Sweet Enhancer Amides, read-out: Sweet EC50

| EC50 [1] | EC50 [2] | SMILES |
| --- | --- | --- |
| 1070 nM |  | O=C(Nc1c(F)cc(Br)cc1F)N1Cc2cccc([N+](=O)[O-])c2C1 [Example 196, N-(4-Bromo-2,6-difluorophenyl)-4-nitroisoindoline-2-carboxamide] |
| 520 nM |  | Cc1ccc2c(c1)CN(C(=O)Nc1c(F)cc(Br)cc1F)C2 [Example 197, N-(4-Bromo-2,6-difluorophenyl)-5-methylisoindoline-2-carboxamide] |
| 420 nM |  | O=C(Nc1c(F)cc(Br)cc1F)N1Cc2ccc(Br)cc2C1 [Example 198, 5-Bromo-N-(4-bromo-2,6-difluorophenyl)isoindoline-2-carboxamide] |
| 950 nM |  | Cc1cccc2c1CN(C(=O)Nc1ccc3c(c1)OCO3)C2 [Example 199, N-(3,4-(methylenedioxy)phenyl)-4-methylisoindoline-2-carboxamide] |
| 1020 nM |  | CSc1cc(C)c(C(=O)N[C@H](C)C(C)(C)C)c(C)c1 [Example 200, (R)-N-(3,3-dimethylbutan-2-yl)-2,6-dimethyl-4-(methylthio)benzamide] |
| 690 nM |  | CCCOc1cc(C)c(C(=O)NC2CCCCC2C)c(C)c1 (centres unmarked) [Example 201, 2,6-dimethyl-N-(2-methylcyclohexyl)-4-propoxybenzamide] |
| 1020 nM |  | Cc1cc(-c2ccco2)cc(C)c1C(=O)NC1CCCCC1C (centres unmarked) [Example 202, 4-(furan-2-yl)-2,6-dimethyl-N-(2-methylcyclohexyl)benzamide] |
|  | 190 nM | CC1CCc2ccccc2C1NC(=O)c1cccc(Cl)c1O (centres unmarked) [Example E1, 3-chloro-2-hydroxy-N-(2-methyl-1,2,3,4-tetrahydronaphthalen-1-yl)benzamide] |
|  | 650 nM | O=C(N[C@@H]1CCCc2ccccc21)c1cccc(Cl)c1O [Example E2, (R)-3-chloro-2-hydroxy-N-(1,2,3,4-tetrahydronaphthalen-1-yl)benzamide] |
|  | 1030 nM | O=C(NC1CCCc2c(O)cccc21)c1cccc(Cl)c1O (centres unmarked) [Example E3, 3-chloro-2-hydroxy-N-(5-hydroxy-1,2,3,4-tetrahydronaphthalen-1-yl)benzamide] |
|  | 1610 nM | CC1CCC(NC(=O)c2cccc(Cl)c2O)c2ccccc21 (centres unmarked) [Example E4, 3-chloro-2-hydroxy-N-(4-methyl-1,2,3,4-tetrahydronaphthalen-1-yl)benzamide] |
|  | 1610 nM | COc1ccc2c(c1)CCCC2NC(=O)c1cccc(Cl)c1O (centres unmarked) [Example E5, 3-chloro-2-hydroxy-N-(6-methoxy-1,2,3,4-tetrahydronaphthalen-1-yl)benzamide] |
|  | 1480 nM | Cc1nocc1C(=O)NC1c2ccccc2CCC1C (centres unmarked) [Example E6, 3-methyl-N-(2-methyl-1,2,3,4-tetrahydronaphthalen-1-yl)isoxazole-4-carboxamide] |
|  | 1810 nM | O=C(NC1CCCc2ccccc21)c1cccc(Cl)c1O (centres unmarked) [Example E7, 3-chloro-2-hydroxy-N-(1,2,3,4-tetrahydronaphthalen-1-yl)benzamide] |
|  | 1980 nM | CC1CCc2ccccc2C1NC(=O)c1cccc(O)c1O (centres unmarked) [Example E8, 2,3-dihydroxy-N-(2-methyl-1,2,3,4-tetrahydronaphthalen-1-yl)benzamide] |
|  | 2360 nM | CC1CCc2ccccc2C1NC(=O)c1ccccc1O (centres unmarked) [Example E9, 2-hydroxy-N-(2-methyl-1,2,3,4-tetrahydronaphthalen-1-yl)benzamide] |
|  | 2440 nM | COc1cccc2c1CCCC2NC(=O)c1cccc(O)c1O (centres unmarked) [Example E10, 2,3-dihydroxy-N-(5-methaxy-1,2,3,4-tetrahydronaphthalen-1-yl)benzamide] |
|  | 2460 nM | Cc1nocc1C(=O)NC1CCC(C)c2ccccc21 (centres unmarked) [Example E11, 3-methyl-N-(4-methyl-1,2,3,4-tetrahydronaphthalen-1-yl)isoxazole-4-carboxamide] |
|  | 2850 nM | COc1cccc2c1CCCC2NC(=O)c1conc1C (centres unmarked) [Example E12, N-(5-methoxy-1,2,3,4-tetrahydronaphthalen-1-yl)-3-methylisoxazole-4-carboxamide] |
|  | 2910 nM | Cc1c(Cl)cccc1C(=O)N[C@H]1CCCc2ccccc21 [Example E13, (S)-3-chloro-2-methyl-N-(1,2,3,4-tetrahydronaphthalen-1-yl)benzamide] |
